Here are results for one molecule from ChEMBL document CHEMBL5143617 (Eur J Med Chem, 2022).

Values after ≈ are worked out from the molar mass of the structure shown. Active and inactive are the calls of the source. The rule behind the calls is not given here.

The subject of one data set is Mus musculus. The experiment in a line: Antipsychotic activity in CD-1 mouse assessed as inhibition of amphetamine-stimulated locomotor activity at 5 mg/kg, ip administered 30 mins prior to amphetamine stimulation and measured after 30 mins. It counts as functional, organism-based. To be noted: time 60.0 min.
The target of data set [1] is T1, 5-hydroxytryptamine receptor 1A (Homo sapiens, UniProt P08908).
T1 sequence (P08908 whole entry): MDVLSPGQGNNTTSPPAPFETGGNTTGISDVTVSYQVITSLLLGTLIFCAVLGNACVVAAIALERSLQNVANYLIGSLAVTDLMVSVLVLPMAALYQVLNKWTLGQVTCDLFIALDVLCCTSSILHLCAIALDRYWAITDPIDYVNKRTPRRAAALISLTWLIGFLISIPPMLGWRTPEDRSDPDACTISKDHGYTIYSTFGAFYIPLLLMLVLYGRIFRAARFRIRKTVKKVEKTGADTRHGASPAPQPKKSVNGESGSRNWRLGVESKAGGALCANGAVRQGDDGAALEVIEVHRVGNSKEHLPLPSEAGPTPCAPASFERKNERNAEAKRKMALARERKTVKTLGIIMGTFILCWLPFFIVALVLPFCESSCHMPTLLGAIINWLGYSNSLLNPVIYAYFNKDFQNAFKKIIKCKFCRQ
Description: Displacement of [3H]-[…] from human 5-HT1A receptor expressed in CHO-K1 cells membrane by scintillation counter analysis. It counts as cell membranes.

Data set [2] addresses 5-hydroxytryptamine receptor 7 (Homo sapiens, UniProt P34969). The experiment in a line: Displacement of [3H]-5-CT from human 5-HT7 receptor expressed in CHO-K1 cells membrane by scintillation counter analysis. It counts as cell membranes. On the technique in general: Displacement assays read how much labelled ligand stays bound in the presence of the test substance.
The target in data set [3] is T1, 5-hydroxytryptamine receptor 1A. The experiment in a line: Agonist activity at human 5-HT1A receptor expressed in U2OS cells assessed as beta-arrestin recruitment incubated for 5 hrs by Tango assay. It counts as functional, cell-based.
Data set [4] deals with 5-hydroxytryptamine receptor 2A (Homo sapiens, UniProt P28223). The experiment in a line: Binding affinity to 5HT-2A receptor (unknown origin).
Chain of 5-hydroxytryptamine receptor 2A (P28223 whole entry): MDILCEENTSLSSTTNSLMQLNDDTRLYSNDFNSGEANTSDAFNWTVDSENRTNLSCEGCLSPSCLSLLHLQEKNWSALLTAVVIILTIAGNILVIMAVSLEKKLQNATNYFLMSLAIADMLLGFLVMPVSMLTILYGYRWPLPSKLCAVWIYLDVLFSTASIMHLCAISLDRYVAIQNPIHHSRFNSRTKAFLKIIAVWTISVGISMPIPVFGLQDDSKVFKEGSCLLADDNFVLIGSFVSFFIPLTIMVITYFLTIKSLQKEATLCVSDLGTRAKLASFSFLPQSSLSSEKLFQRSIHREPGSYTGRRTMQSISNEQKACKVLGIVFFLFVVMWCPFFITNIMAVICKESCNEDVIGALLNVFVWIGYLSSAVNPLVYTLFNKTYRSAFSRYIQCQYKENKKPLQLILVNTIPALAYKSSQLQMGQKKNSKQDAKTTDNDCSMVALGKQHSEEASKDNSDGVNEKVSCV
The target in data set [5] is 5-hydroxytryptamine receptor 6 (Homo sapiens) (UniProt P50406). The experiment in a line: Inhibition of 5-HT6 receptor (unknown origin). To be noted: concentration not given here.
Chain of 5-hydroxytryptamine receptor 6 (Homo sapiens) (P50406 whole entry): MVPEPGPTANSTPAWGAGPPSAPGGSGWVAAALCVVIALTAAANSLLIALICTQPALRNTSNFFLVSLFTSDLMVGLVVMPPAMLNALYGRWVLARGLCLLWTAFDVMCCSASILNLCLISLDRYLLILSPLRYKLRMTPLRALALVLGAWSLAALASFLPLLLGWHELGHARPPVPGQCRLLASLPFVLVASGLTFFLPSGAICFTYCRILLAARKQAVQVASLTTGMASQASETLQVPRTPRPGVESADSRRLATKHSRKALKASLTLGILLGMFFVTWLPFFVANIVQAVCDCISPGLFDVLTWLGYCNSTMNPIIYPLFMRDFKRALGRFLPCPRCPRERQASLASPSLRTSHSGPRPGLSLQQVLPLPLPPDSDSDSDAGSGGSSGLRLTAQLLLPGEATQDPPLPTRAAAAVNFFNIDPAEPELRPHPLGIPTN
Another data set addresses D(2) dopamine receptor (Homo sapiens, UniProt P14416). Description: Binding affinity to dopamine D2 receptor (unknown origin).
A short description of data set [6]: Metabolic stability in human liver microsomes assessed as intrinsic clearance. For orientation: Liver microsomes are vesicles of endoplasmic reticulum, rich in cytochrome P450 enzymes.
A short description of data set [7]: Tmax in mouse plasma at 0.625 mg/kg, ip measured up to 480 mins by LC/ESI-MS/MS analysis. It counts as ADME, organism-based.
Data set [8] in a line: Cmax in mouse plasma at 0.625 mg/kg, ip measured up to 480 mins by LC/ESI-MS/MS analysis. It counts as ADME, organism-based. On the set-up: time < 480 min, dose 0.625 mg/kg, route ip.
A short description of data set [9]: Cmax in mouse hippocampus at 0.625 mg/kg, ip by LC/ESI-MS/MS analysis. It counts as ADME, organism-based. Set-up: dose 0.625 mg/kg, route ip.
A short description of data set [10]: AUC(0 to t) in mouse hippocampus at 0.625 mg/kg, ip by LC/ESI-MS/MS analysis. Set-up: dose 0.625 mg/kg, route ip. It counts as ADME, organism-based.
Data set [11] in a line: Tmax in mouse striatum at 0.625 mg/kg, ip by LC/ESI-MS/MS analysis. It counts as ADME, organism-based.
Data set [12] in a line: AUC(0 to t) in mouse striatum at 0.625 mg/kg, ip by LC/ESI-MS/MS analysis. It counts as ADME, organism-based. On the set-up: dose 0.625 mg/kg, route ip.
A short description of data set [13]: AUC(0 to t) in mouse frontal cortex at 0.625 mg/kg, ip by LC/ESI-MS/MS analysis. Set-up: dose 0.625 mg/kg, route ip. It counts as ADME, organism-based.
Data set [14] can be described thus: Ratio of drug concentration in frontal cortex to plasma in mouse at 0.625 mg/kg, ip by LC/ESI-MS/MS analysis. It counts as ADME, organism-based. To be noted: frontal cortex and plasma.
Data set [15] in a line: Aqueous solubility of compound in simulated gastric fluid by UV absorbance based analysis. It counts as physicochemical.
Data set [16] in a line: Permeability of the compound across apical to basolateral side in human Caco-2 cells at pH 7.4. It counts as ADME, cell-based. To be noted: Caco-2, pH 7.4, read-out: Papp. In general terms: Caco-2 cells form a polarised layer with tight junctions and transporters.
Data set [17] is described as follows: Metabolic stability in human liver microsomes assessed as half life.
The test system of another data set is Erythrocyte. The experiment in a line: Hemolytic activity in human erythrocytes at 10^-6 to 10^-5 M after 30 mins by spectrophotometry. It counts as toxicity, cell-based. The conditions noted are these: 0.5 h, dose lower 1e-06 µmol/L, dose upper 1e-05 µmol/L.
Data set [18] is described as follows: Efflux ratio of apparent permeability across basolateral to apical membrane to apical to basolateral membrane in human Caco-2 cells. It counts as ADME, cell-based.

Chain of 5-hydroxytryptamine receptor 7 (P34969 whole entry): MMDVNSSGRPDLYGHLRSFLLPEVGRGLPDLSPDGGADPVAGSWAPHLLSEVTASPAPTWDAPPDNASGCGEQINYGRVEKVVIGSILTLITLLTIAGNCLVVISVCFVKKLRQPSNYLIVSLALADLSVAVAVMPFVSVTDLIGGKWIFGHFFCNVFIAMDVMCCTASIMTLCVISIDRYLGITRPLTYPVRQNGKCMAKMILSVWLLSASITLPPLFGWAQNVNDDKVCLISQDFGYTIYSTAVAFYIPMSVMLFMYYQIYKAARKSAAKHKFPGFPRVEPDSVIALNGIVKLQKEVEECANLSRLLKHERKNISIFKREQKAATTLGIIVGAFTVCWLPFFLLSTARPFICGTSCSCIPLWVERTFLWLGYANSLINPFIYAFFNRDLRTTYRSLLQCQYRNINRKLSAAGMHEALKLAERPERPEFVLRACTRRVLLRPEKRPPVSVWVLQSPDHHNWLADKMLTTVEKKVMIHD
Chain of D(2) dopamine receptor (P14416 whole entry): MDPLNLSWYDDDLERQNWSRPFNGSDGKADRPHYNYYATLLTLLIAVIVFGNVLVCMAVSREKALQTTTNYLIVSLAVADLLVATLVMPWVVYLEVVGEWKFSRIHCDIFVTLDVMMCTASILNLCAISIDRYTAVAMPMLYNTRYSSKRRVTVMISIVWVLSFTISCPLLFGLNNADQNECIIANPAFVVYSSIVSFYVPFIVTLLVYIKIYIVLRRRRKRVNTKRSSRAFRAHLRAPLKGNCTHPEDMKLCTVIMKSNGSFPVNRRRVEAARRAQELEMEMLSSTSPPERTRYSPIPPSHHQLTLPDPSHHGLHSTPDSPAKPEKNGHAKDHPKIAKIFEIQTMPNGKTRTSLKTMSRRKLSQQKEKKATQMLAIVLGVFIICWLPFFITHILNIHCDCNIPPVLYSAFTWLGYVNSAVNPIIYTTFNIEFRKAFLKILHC

Broadly, the Ki is a dissociation constant, usually derived from enzyme kinetics or from competition with a known ligand. High values mean weaker binding, low ones tighter binding. Broadly, the EC50 is the concentration giving half of the maximal effect. A word on the inhibition: it is the share of the control response that was lost under treatment. A higher inhibition goes with a response far below the control. As a reminder, the microsomal CLint is a measure of how fast metabolising enzymes remove a compound, apart from limits set by blood flow. What is called Tmax is the time at which the peak concentration occurs. As a reminder, the Cmax is the maximum level reached in the sampled fluid or tissue. Broadly, the AUC(0-t) is exposure summed from dosing to a finite time, without extrapolation to infinity. One may read the Kp as the ratio of the level in a tissue or fluid to that in plasma or blood. As a reminder, the solubility is the dissolved amount per volume that the medium holds. A high value points to much dissolved substance. The term half-life denotes the time in which the quantity being followed falls by half. What is called efflux ratio is a quotient of directional permeabilities that is used to spot active efflux. As to `COc1cc2ncnc(N3CCC(CN4CCN(c5ccc(Cl)cc5)CC4)C3)c2cc1OC` (stereo unspecified), the result in the data set on Mus musculus was Active. Further, the Ki in [1] is 363 nM; in data set [2], 138 nM; in data set [4], above 1000 nM; at D(2) dopamine receptor, above 1000 nM. Also, the EC50 in [3] was 12000 nM. This molecule also came in with an inhibition in data set [5] of 8%. Further, in data set [6], the intrinsic clearance (microsomal CLint) is 75.8 µL/min/mg. Also, the Tmax in data set [7] is 5 min; in data set [11], 30 min. The Cmax was 4.1 ng/mL in data set [8] and 330 ng/mL in data set [9]. For the same molecule, the figures for the AUC(0-t) in data set [10], in data set [12] and in data set [13] were 1040 ng·h/mL, 1060 ng·h/mL and 1820 ng·h/mL, respectively. For the same molecule, in data set [14], the concentration ratio (Kp) stood at 149. Moreover, the solubility in [15] was 196 µM (≈ 91.9 µg/mL). Moreover, in data set [16], the Papp A→B is 0.05 ×10⁻⁶ cm/s. Also, the half-life in [17] was 49 min. Moreover, the Activity entry in the data set with Erythrocyte was “Non-Toxic”. Besides, the efflux ratio in [18] was 0.19.
